# Patent US9492789B2, “Draw solute for forward osmosis, forward osmosis water treatment device, and forward osmosis method for water treatment” (Samsung Electronics Co., Ltd., priority 2012, dated 2016)
# Columns and labels:
# [1] = Solubility change of 10 wt % osmosis draw solution on slow heating (LCST, separation temperature, reversibility); assay type: physicochemical
# Excerpt: Each osmosis draw solution including the compounds of Examples 1 to 5 and Comparative Examples 1 and 2 at a concentration of 10 wt % is slowly heated from room temperature, and the solubility change of the solution is observed according to the temperature. The term “lower critical solution temperature (LCST)” indicates the temperature at which the solution begins to suddenly turn opaque, and the term “separation temperature” indicates the temperature in which the solution begins to be precipitated.
# [2] = Osmotic pressure analysis of osmosis draw solution by freezing point depression; assay type: physicochemical; settings: draw solution concentration 10 wt %
# Procedure: Osmosis draw solutions having the various concentrations shown in the following Table 1 are prepared, and the osmotic pressure of the osmosis draw solution including the NIPAam oligomer prepared from Examples 1 to 4 is analyzed using the osmotic pressure measurer according to a freezing point depression.
structure (smiles),measurement,setting,value
"C=CC(=O)NC(C)C [Comparative Example 1, N-isopropylacrylamide]",LCST,"[1]; 10 wt % solution heated from room temperature, temperature at which solution begins to suddenly turn opaque",36-37 °C
same,Reversibility,[1]; @ 25° C.,◯
same,"Osmotic pressure, Osmol concentration",[2],738 mOsmol/kg
same,"Osmotic pressure, atm (equivalents)",[2],18 atm
